What all share (format): functional, cell-based
The target of data set [1] is T1, Solute carrier family 22 member 6 (Mus musculus, UniProt Q8VC69).
T1 sequence (Q8VC69 whole entry): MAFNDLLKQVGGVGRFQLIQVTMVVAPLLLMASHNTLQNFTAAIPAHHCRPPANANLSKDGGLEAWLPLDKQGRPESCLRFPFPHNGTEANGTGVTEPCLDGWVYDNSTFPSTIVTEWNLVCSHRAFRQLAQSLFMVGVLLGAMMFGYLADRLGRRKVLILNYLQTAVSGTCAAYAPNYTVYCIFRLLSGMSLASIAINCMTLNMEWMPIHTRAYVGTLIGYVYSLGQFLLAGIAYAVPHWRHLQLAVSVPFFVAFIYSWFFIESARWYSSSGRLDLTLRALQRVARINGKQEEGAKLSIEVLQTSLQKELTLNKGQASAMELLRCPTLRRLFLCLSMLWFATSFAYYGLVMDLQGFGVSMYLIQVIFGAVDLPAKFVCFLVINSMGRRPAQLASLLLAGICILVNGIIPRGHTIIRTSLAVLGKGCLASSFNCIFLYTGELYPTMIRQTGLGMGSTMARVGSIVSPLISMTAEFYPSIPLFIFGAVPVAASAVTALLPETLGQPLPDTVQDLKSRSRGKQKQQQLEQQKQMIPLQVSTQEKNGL
As to the kind of experiment: TP_TRANSPORTER: inhibition of PAH uptake (PAH: 20 uM, Enalapril: 1000 uM) in OAT-expressing COS-7 cells. Conditions: monkey, cos-7, 1000 µM.

In data set [2] the target is T1, Solute carrier family 22 member 6. As to the kind of experiment: TP_TRANSPORTER: inhibition of PAH uptake (PAH: 20 uM, Sulindac: 1000 uM) in OAT-expressing COS-7 cells. The settings on record: monkey, cos-7, 1000 µM.
The target is the same in data set [3]. As to the kind of experiment: TP_TRANSPORTER: inhibition of PAH uptake (PAH: 20 uM, Folic acid: 1000 uM) in OAT-expressing COS-7 cells. The settings on record: monkey, cos-7, 1000 µM.
Data set [4] shares this target. As to the kind of experiment: TP_TRANSPORTER: inhibition of PAH uptake (PAH: 20 uM, Carprofen: 1000 uM) in OAT-expressing COS-7 cells. The settings on record: monkey, cos-7, 1000 µM.
Data set [5] shares this target. As to the kind of experiment: TP_TRANSPORTER: inhibition of PAH uptake (PAH: 20 uM, Captopril: 1000 uM) in OAT-expressing COS-7 cells. The settings on record: monkey, cos-7, 1000 µM.
Data set [6] shares this target. The data set can be described thus: TP_TRANSPORTER: inhibition of PAH uptake (PAH: 20 uM, Indomethacin: 1000 uM) in OAT-expressing COS-7 cells. The settings on record: monkey, cos-7, 1000 µM.
Data set [7] shares this target. As to the kind of experiment: TP_TRANSPORTER: inhibition of PAH uptake (PAH: 20 uM, Diclofenac: 1000 uM) in OAT-expressing COS-7 cells. Conditions: monkey, cos-7, 1000 µM.
Data set [8] shares this target. The data set can be described thus: TP_TRANSPORTER: inhibition of PAH uptake (PAH: 20 uM, Semustine: 300 uM) in OAT-expressing COS-7 cells. Conditions: monkey, cos-7, 300 µM.
The target is the same in data set [9]. As to the kind of experiment: TP_TRANSPORTER: inhibition of PAH uptake (PAH: 20 uM, alpha-KG: 1000 uM) in OAT-expressing COS-7 cells. Conditions: monkey, cos-7, 1000 µM.
For data set [10] the target is unchanged. As to the kind of experiment: TP_TRANSPORTER: inhibition of PAH uptake (PAH: 20 uM, Riboflavin: 1000 uM) in OAT-expressing COS-7 cells. The settings on record: monkey, cos-7, 1000 µM.
Data set [11] shares this target. As to the kind of experiment: TP_TRANSPORTER: inhibition of PAH uptake (PAH: 20 uM, Pantothenic acid: 1000 uM) in OAT-expressing COS-7 cells. Conditions: monkey, cos-7, 1000 µM.

This note sets out measurements from ChEMBL document CHEMBL2073839, “Heterologous expression and functional characterization of a mouse renal organic anion transporter in mammalian cells” (J Biol Chem, 1999).

As to `CCOC(=O)[C@H](CCc1ccccc1)N[C@@H](C)C(=O)N1CCC[C@H]1C(=O)O` [ENALAPRIL], in [1], the Activity result was “inhibitor [(at a rough estimate) 45 % of control]”. `CC1=C(CC(=O)O)c2cc(F)ccc2/C1=C\c1ccc([S+](C)[O-])cc1` (stereo unspecified) [SULINDAC]: the Activity result in data set [2] was “inhibitor [(at a rough estimate) 5 % of control]”.

For `Nc1nc2ncc(CNc3ccc(C(=O)N[C@@H](CCC(=O)O)C(=O)O)cc3)nc2c(=O)[nH]1` [FOLIC ACID], the Activity result in data set [3] was “inhibitor [(at a rough estimate) 55 % of control]”. As for `CC(C(=O)O)c1ccc2c(c1)[nH]c1ccc(Cl)cc12` (stereo unspecified) [CARPROFEN], the Activity entry in data set [4] is “inhibitor [(at a rough estimate) 5 % of control]”.

With `C[C@H](CS)C(=O)N1CCC[C@H]1C(=O)O` [CAPTOPRIL], the Activity result in [5] was “inhibitor [(at a rough estimate) 50 % of control]”.

On to `COc1ccc2c(c1)c(CC(=O)O)c(C)n2C(=O)c1ccc(Cl)cc1` [INDOMETHACIN], for which, in [6], the Activity result is “inhibitor [(at a rough estimate) 5 % of control]”. For `O=C(O)Cc1ccccc1Nc1c(Cl)cccc1Cl` [DICLOFENAC], in data set [7], the Activity result was “inhibitor [(at a rough estimate) 5 % of control]”.

On to `CC1CCC(NC(=O)N(CCCl)N=O)CC1` (stereo unspecified) [SEMUSTINE], for which the Activity result in data set [8] was “inhibitor [(at a rough estimate) 35 % of control]”. As to `O=C(O)CCC(=O)C(=O)O` [ALPHA-KETOGLUTARIC ACID], the Activity result in data set [9] was “inhibitor [(at a rough estimate) 10 % of control]”. Consider `Cc1cc2nc3c(=O)[nH]c(=O)nc-3n(C[C@H](O)[C@H](O)[C@H](O)CO)c2cc1C` [RIBOFLAVIN], for which the Activity result in data set [10] is “inhibitor [(at a rough estimate) 40 % of control]”. Regarding `CC(C)(CO)[C@@H](O)C(=O)NCCC(=O)O` [PANTOTHENIC ACID], the Activity result in [11] is “inhibitor [(at a rough estimate) 60 % of control]”.
